Assay results reported in ChEMBL document CHEMBL5252623, “Discovery of 3-phenyl-1,2,4-oxadiazole derivatives as a new class of SARS-CoV-2 main protease inhibitors” (Bioorg Med Chem Lett, 2023).

What follows are molecules tested against Replicase polyprotein 1ab (Severe acute respiratory syndrome coronavirus 2, UniProt P0DTD1) (assay: Inhibition of SARS-CoV-2 main protease expressed in Escherichia coli BL21 (DE3) using MDA-AVLQSGFR-Lys(Dnp)-Lys-NH2 as substrate incubated for 10 mins by FRET analysis).

Row | SMILES | IC50
1 | O=C(/C=C/c1ccccc1)NCc1nc(-c2ccc(C(F)(F)F)cc2)no1 | 46.3 µM
2 | O=C(/C=C/c1cccs1)NCc1nc(-c2ccc(C(F)(F)F)cc2)no1 | 54.6 µM
3 | CC1=C(c2ccccc2)C1C(=O)NC(CC1CCCCC1)c1nc(-c2ccc(C(F)(F)F)cc2)no1 (stereo not given) | 19.4 µM
4 | CC1=C(c2ccccc2)C1C(=O)NCc1nc(-c2cccc(C(F)(F)F)c2)no1 (stereo not given) | 14.3 µM
5 | CC1=C(c2ccccc2)C1C(=O)NCc1nc(-c2ccc(C(F)(F)F)cc2)no1 (stereo not given) | 6.71 µM
6 | CC1=C(c2ccccc2)C1C(=O)NC(Cc1cccc(F)c1)c1nc(-c2ccc(C(F)(F)F)cc2)no1 (stereo not given) | 14.2 µM
7 | CC1=C(c2ccccc2)C1C(=O)NC(Cc1cc2ccccc2[nH]1)c1nc(-c2ccc(C(F)(F)F)cc2)no1 (stereo not given) | 14.7 µM
8 | CC1=C(c2ccccc2)C1C(=O)NCc1nc(-c2ccccc2C(F)(F)F)no1 (stereo not given) | 66.9 µM
9 | O=C(NCc1nc(-c2ccc(C(F)(F)F)cc2)no1)c1ccccc1 | 62 µM
10 | O=C(CCc1ccccc1)NCc1nc(-c2ccc(C(F)(F)F)cc2)no1 | 90.5 µM
11 | O=C(C#Cc1ccccc1)NCc1nc(-c2ccc(C(F)(F)F)cc2)no1 | 46.9 µM
12 | O=C(/C=C/c1ccco1)NCc1nc(-c2ccc(C(F)(F)F)cc2)no1 | 60.5 µM
13 | C/C=C/C(=O)NCc1nc(-c2ccc(C(F)(F)F)cc2)no1 | 250 µM
14 | CC1=C(c2ccccc2)C1C(=O)NC(Cc1ccccc1F)c1nc(-c2ccc(C(F)(F)F)cc2)no1 (stereo not given) | 7.48 µM
15 | CC1=C(c2ccccc2)C1C(=O)NC(Cc1ccccc1)c1nc(-c2ccc(C(F)(F)F)cc2)no1 (stereo not given) | 5.27 µM
16 | CC1=C(c2ccccc2)C1C(=O)NC(CC1CC1)c1nc(-c2ccc(C(F)(F)F)cc2)no1 (stereo not given) | 76.8 µM
17 | CC1=C(c2ccccc2)C1C(=O)NC(Cc1ccc2ccccc2c1)c1nc(-c2ccc(C(F)(F)F)cc2)no1 (stereo not given) | 6.47 µM
18 | CC1=C(c2ccccc2)C1C(=O)NC(Cc1ccc(F)cc1)c1nc(-c2ccc(C(F)(F)F)cc2)no1 (stereo not given) | 16.5 µM
19 | O=C(/C=C/c1ccccn1)NCc1nc(-c2ccc(C(F)(F)F)cc2)no1 | 102 µM
20 | CC1=C(c2ccccc2)C1C(=O)NCc1nc(-c2ccccc2)no1 (stereo not given) | 79.6 µM
